From the CheMixHub viscosity set

Experiment: xn = mol fraction of the nth substance listed

O=[N+]([O-])c1ccccc1 + CC(C)O
viscosity [mPa·s]
Settings	293.15 K	298.15 K	303.15 K	308.15 K	313.15 K	318.15 K	323.15 K
100 kPa, x1 = 0.081	2.112	1.849	1.625	1.428	1.247	1.101	0.9776
100 kPa, x1 = 0.16	1.892	1.679	1.494	1.333	1.166	1.039	0.9339
100 kPa, x1 = 0.2401	1.742	1.56	1.402	1.264	1.111	1.003	0.9084
100 kPa, x1 = 0.3501	1.624	1.468	1.332	1.212	1.082	0.9879	0.9036
100 kPa, x1 = 0.44	1.597	1.446	1.318	1.203	1.088	1.002	0.9207
100 kPa, x1 = 0.56	1.637	1.482	1.347	1.232	1.134	1.05	0.9715
100 kPa, x1 = 0.6499	1.703	1.54	1.401	1.281	1.187	1.105	1.024
100 kPa, x1 = 0.7399	1.795	1.622	1.475	1.349	1.256	1.171	1.087
100 kPa, x1 = 0.85	1.92	1.739	1.586	1.454	1.355	1.262	1.174
100 kPa, x1 = 0.9399	2.022	1.842	1.685	1.55	1.442	1.342	1.25
101.33 kPa, x1 = 0.0512	–	1.881	1.567	–	–	–	–
101.33 kPa, x1 = 0.1088	–	1.67	1.476	–	–	–	–
101.33 kPa, x1 = 0.1732	–	1.529	1.344	–	–	–	–
101.33 kPa, x1 = 0.2456	–	1.462	1.297	–	–	–	–
101.33 kPa, x1 = 0.3281	–	1.459	1.277	–	–	–	–
101.33 kPa, x1 = 0.4228	–	1.45	1.292	–	–	–	–
101.33 kPa, x1 = 0.5325	–	1.439	1.323	–	–	–	–
101.33 kPa, x1 = 0.661	–	1.523	1.398	–	–	–	–
101.33 kPa, x1 = 0.8145	–	1.603	1.434	–	–	–	–

c1ccccc1 + CC(C)O
viscosity [mPa·s], 101 kPa
Settings	x1 = 0.0575	x1 = 0.144	x1 = 0.225	x1 = 0.362	x1 = 0.558	x1 = 0.651	x1 = 0.732	x1 = 0.798	x1 = 0.886
298.15 K	1.733	1.369	1.139	0.89	0.69	0.639	0.614	0.607	0.602
303.15 K	1.512	1.206	1.015	0.8	0.643	0.593	0.572	0.565	0.561
308.15 K	1.325	1.068	0.905	0.73	0.592	0.551	0.531	0.527	0.524
313.15 K	1.16	0.948	0.814	0.668	0.556	0.511	0.497	0.493	0.493
318.15 K	1.026	0.852	0.732	0.616	0.518	0.475	0.465	0.463	0.461
